Source: ChEMBL document CHEMBL1145136, “Molecular determinants of steroid inhibition for the mouse constitutive androstane receptor” (J Med Chem, 2003)

Each molecule was assayed against T1, Nuclear receptor subfamily 1 group I member 3 (Mus musculus, UniProt O35627) (assay: Inhibitory concentration against mammalian m-constitutive androstane receptor (mCAR) activity). Settings: not given.
T1 sequence (O35627 whole entry): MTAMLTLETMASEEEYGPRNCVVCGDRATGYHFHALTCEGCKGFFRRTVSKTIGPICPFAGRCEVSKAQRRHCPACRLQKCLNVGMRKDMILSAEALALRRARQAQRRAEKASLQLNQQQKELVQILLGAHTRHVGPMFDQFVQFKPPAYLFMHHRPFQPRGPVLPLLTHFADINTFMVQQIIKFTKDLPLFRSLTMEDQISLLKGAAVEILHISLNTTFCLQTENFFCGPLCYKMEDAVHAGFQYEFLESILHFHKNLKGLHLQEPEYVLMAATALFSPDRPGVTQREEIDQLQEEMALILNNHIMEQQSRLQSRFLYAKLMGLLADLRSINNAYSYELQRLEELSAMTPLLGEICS

| Compound | IC50 [µM] |
| --- | --- |
| C[C@]12CC[C@@H](O)C[C@@H]1CC[C@@H]1[C@@H]2CC[C@]2(C)C=CC[C@@H]12 [ANDROSTENOL] | 0.25 |
| C[C@]12CC[C@H]3[C@@H](CCC4=CC(=O)CC[C@@]43C)[C@@H]1CC[C@@H]2O [TESTOSTERONE] | 30 |

Each molecule was assayed against T2, mouse constitutive androstane receptor (mCAR, NR1I3) (Mus musculus, UniProt O35627) (assay: Inhibition of mouse constitutive androstane receptor (mCAR) activity at 10 uM was determined as percent remaining activity). Settings: read-out: Remaining activity.
T2 sequence (O35627 whole entry): T1 sequence (O35627 whole entry)

| Compound | activity at 10 µM [%] |
| --- | --- |
| C[C@]12C[C@H](O)[C@H]3[C@@H](CCC4=CC(=O)CC[C@@]43C)[C@@H]1CC[C@@H]2C(=O)CO [CORTICOSTERONE] | 80 |
| CC12CCC3C(C1CCC2=O)[C@H](O)CC1=CC(=O)CCC13C (stereo partly specified) | 97 |
| C[C@]12C=CC(=O)C=C1CC[C@@H]1[C@@H]2CC[C@]2(C)C(=O)CC[C@@H]12 [ANDROSTENEDONE] | 89 |
| C[C@]12CCC(=O)C=C1CCC1[C@@H]2[C@@H](O)C[C@@]2(C)[C@H]1CC[C@]2(O)C(=O)CO (single isomer, unassigned) [HYDROCORTISONE] | 68 |
| CC12CCC3C(CCC4=CC(=O)CCC43C)C1C[C@@H](O)C2=O (stereo partly specified) | 62 |
| C[C@@H]1C[C@H]2[C@@H]3CCC4=CC(=O)C=C[C@]4(C)[C@@]3(F)[C@@H](O)C[C@]2(C)[C@@]1(O)C(=O)CO [DEXAMETHASONE] | 75 |
| CC12CCC3C(CC[C@H]4CC=CCC34C)C1CCC2=O (stereo partly specified) | 42 |
| C[C@]12CCC(=O)C=C1CC[C@@H]1[C@@H]2[C@@H](O)C[C@]2(C)C(=O)CC[C@@H]12 | 83 |
| C[C@@]12CCC[C@H]1[C@@H]1CCc3cc(O)ccc3[C@H]1CC2 | 56 |
| C[C@]12CCC(=O)C[C@@H]1CC[C@@H]1[C@@H]2CC[C@]2(C)[C@@H](O)CC[C@@H]12 [STANOLONE] | 69 |
| C[C@]12CCC(=O)C(O)=C1CC[C@@H]1[C@@H]2CC[C@]2(C)C(=O)CC[C@@H]12 [FORMESTANE] | 53 |
| C[C@]12CC[C@H]3[C@@H](CCC4=CC(=O)CC[C@@]43C)[C@@H]1CC[C@@H]2C(=O)CO [DESOXYCORTICOSTERONE] | 58 |
| CC12CCC3C(CCC4=C[C@H](O)CCC43C)C1CCC2=O (stereo partly specified) | 66 |
| CC12CCC3C(C[C@@H](O)C4=CC(=O)CCC43C)C1CCC2=O (stereo partly specified) | 89 |
| CC(=O)[C@H]1CC[C@H]2[C@@H]3CC[C@H]4C[C@H](O)CC[C@]4(C)[C@H]3CC[C@]12C [BREXANOLONE] | 19 |
| CC12CCC(=O)C=C1CCC1C2CCC2(C)C1CC[C@@H]2C(=O)O (stereo partly specified) | 81 |
| CC(=O)[C@H]1CC[C@H]2[C@@H]3CC=C4C[C@@H](O)CC[C@]4(C)[C@H]3CC[C@]12C [PREGNENOLONE] | 95 |
| CC12C=CCC1C1CC[C@H]3C[C@@H](O)CCC3(C)C1CC2 (stereo partly specified) | 28 |
| C[C@@]12CCC[C@H]1[C@@H]1CC[C@H]3C[C@H](O)CC[C@]3(C)[C@H]1CC2 | 4 |
| CC12CC[C@H]3[C@@H](CC[C@@H]4CCCCC43C)[C@@H]1CCC2=O (stereo partly specified) | 45 |
| CC12C=CCC1C1CC[C@H]3CC(=O)CCC3(C)C1CC2 (stereo partly specified) | 5 |

| Compound | activity at 10 µM [%] |
| --- | --- |
| C[C@@]12CCC[C@H]1[C@@H]1CC[C@@H]3C[C@H](O)CC[C@]3(C)[C@H]1CC2 | 4 |
| C[C@]12CCC(=O)C=C1CCC1[C@@H]2C(=O)C[C@@]2(C)[C@H]1CC[C@]2(O)C(=O)CO (single isomer, unassigned) [CORTISONE] | 80 |
| CC12CCC3C(C[C@H](O)C4=CC(=O)CCC43C)C1CCC2=O (stereo partly specified) | 81 |
| CC12CC[C@@H](O)C[C@@H]1CC[C@@H]1[C@@H]2CCC2(C)[C@@H](O)CC[C@@H]12 (stereo partly specified) | 63 |
| C[C@]12CCC(=O)C=C1CC[C@@H]1[C@@H]2CC[C@]2(C)C(=O)CC[C@@H]12 [ANDROSTENEDIONE] | 56 |
| CC(=O)[C@H]1CC[C@H]2[C@@H]3CC[C@@H]4CC(=O)CC[C@]4(C)[C@H]3CC[C@]12C | 20 |
| CC12CC[C@@H]3C4CC[C@@H](O)C[C@@H]4CC[C@H]3[C@@H]1CCC2=O (stereo partly specified) | 91 |
| CC12CCC3C(CCC4=CC(=O)[C@H](O)CC43C)C1CCC2=O (stereo partly specified) | 41 |
| CC12CCC(=O)C[C@@H]1CC[C@@H]1[C@@H]2CCC2(C)[C@@H](O)CC[C@@H]12 (stereo partly specified) | 53 |
| C[C@]12CC[C@H](O)CC1=CC[C@@H]1[C@@H]2CC[C@]2(C)C(=O)CC[C@@H]12 [PRASTERONE] | 71 |
| CC12C=CCC1C1CC[C@H]3C[C@H](O)CCC3(C)C1CC2 (stereo partly specified) | 4 |
| CCC1CC[C@H]2[C@@H]3CC[C@H]4CC(=O)CCC4(C)[C@H]3CCC12C (stereo partly specified) | 52 |
| C[C@]12CC[C@H]3[C@@H](CCC4=CC(=O)CC[C@@]43C)[C@@H]1CC[C@@H]2O [TESTOSTERONE] | 78 |
| CC12CC[C@@H]3C4CCC(=O)C[C@@H]4CC[C@H]3[C@@H]1CCC2=O (stereo partly specified) | 80 |
| CC12CC[C@H]3[C@@H](CC[C@H]4CC(=O)CCC43C)[C@@H]1CCC2=O (stereo partly specified) | 34 |
| CC12CCC3C(CC[C@H]4CC(=O)C=CC34C)C1CCC2=O (stereo partly specified) | 90 |
| CC12C=CCC1C1CCC3=CC(=O)CCC3(C)C1CC2 (stereo unspecified) | 7 |
| CC(=O)[C@H]1CC[C@H]2[C@@H]3CC[C@H]4CC(=O)CC[C@]4(C)[C@H]3CC[C@]12C | 73 |
| CC12CCC[C@H]1[C@@H]1CC[C@H]3CC(=O)CCC3(C)[C@H]1CC2 (stereo partly specified) | 12 |
| C[C@]12CC[C@H]3[C@@H](CCC4=CC(=O)CC[C@@]43C)[C@@H]1CC[C@H]2O [EPITESTOSTERONE] | 73 |

The molecules below were run against T1, Nuclear receptor subfamily 1 group I member 3 (assay: Inhibitory concentration against mouse constitutive androstane receptor (mCAR) activity was determined as pIC50). Settings: not given.

| Compound | IC50 [µM] |
| --- | --- |
| CC12CCC(=O)C=C1CCC1C2CCC2(C)C1CC[C@@H]2C(=O)O (stereo partly specified) | 39.8 |
| CC12CC[C@H]3[C@@H](CC[C@H]4CC(=O)CCC43C)[C@@H]1CCC2=O (stereo partly specified) | 5.01 |
| CC12C=CCC1C1CCC3=CC(=O)CCC3(C)C1CC2 (stereo unspecified) | 0.794 |
